Test results as given in ChEMBL document CHEMBL5136981, “Medicinal chemistry updates of novel HDACs inhibitors (2020 to present)” (Eur J Med Chem, 2022).

What was measured:
[1] = biological target: Protein cereblon/Histone deacetylase 1 (Homo sapiens, UniProt Q13547+Q96SW2); assay: PROTAC activity at CRBN/HDAC1 (unknown origin) by cell based assay
[2] = biological target: Protein cereblon/Histone deacetylase 2 (Homo sapiens, UniProt Q92769+Q96SW2); assay: PROTAC activity at CRBN/HDAC2 (unknown origin) by cell based assay
Sequence of Protein cereblon/Histone deacetylase 2 (Q92769 whole entry): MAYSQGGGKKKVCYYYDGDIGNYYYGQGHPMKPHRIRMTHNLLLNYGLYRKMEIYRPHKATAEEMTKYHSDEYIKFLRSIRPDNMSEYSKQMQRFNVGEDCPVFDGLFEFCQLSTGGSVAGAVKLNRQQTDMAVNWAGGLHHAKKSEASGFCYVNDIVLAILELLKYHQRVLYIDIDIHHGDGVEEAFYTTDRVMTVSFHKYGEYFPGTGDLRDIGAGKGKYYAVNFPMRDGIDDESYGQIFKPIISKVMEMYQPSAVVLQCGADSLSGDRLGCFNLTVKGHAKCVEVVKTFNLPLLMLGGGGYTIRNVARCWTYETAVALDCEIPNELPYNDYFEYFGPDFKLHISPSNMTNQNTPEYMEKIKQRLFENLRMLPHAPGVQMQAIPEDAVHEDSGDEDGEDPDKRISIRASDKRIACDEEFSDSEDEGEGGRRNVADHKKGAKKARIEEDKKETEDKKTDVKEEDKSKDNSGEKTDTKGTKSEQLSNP
Sequence of Protein cereblon/Histone deacetylase 2 (Q96SW2 whole entry): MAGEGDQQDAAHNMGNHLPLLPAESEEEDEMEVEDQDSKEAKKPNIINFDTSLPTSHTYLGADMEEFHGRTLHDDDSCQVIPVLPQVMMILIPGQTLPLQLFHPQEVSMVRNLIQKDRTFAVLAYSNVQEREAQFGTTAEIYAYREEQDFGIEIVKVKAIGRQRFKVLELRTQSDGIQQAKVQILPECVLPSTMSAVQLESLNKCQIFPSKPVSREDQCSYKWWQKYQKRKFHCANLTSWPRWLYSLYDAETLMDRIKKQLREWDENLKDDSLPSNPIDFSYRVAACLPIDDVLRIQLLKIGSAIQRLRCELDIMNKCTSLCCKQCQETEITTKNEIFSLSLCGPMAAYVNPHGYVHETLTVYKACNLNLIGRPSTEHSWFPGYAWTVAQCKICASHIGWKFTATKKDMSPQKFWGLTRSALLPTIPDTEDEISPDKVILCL

[3] = biological target: Protein cereblon/Histone deacetylase 3 (Homo sapiens, UniProt O15379+Q96SW2); assay: PROTAC activity at CRBN/HDAC3 (unknown origin) by cell based assay
Sequence of Protein cereblon/Histone deacetylase 3 (O15379 whole entry): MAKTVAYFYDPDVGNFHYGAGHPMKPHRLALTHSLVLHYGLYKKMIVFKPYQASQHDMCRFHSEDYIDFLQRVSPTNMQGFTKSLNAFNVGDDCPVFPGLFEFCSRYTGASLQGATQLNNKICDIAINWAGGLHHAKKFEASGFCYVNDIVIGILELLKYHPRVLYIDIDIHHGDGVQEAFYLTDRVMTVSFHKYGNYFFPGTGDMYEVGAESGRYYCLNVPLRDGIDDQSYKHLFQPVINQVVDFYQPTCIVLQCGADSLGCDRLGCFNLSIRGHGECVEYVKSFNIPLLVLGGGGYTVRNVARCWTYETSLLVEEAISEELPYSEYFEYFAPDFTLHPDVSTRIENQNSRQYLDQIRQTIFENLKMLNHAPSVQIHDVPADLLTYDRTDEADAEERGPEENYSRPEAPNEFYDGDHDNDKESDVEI
Sequence of Protein cereblon/Histone deacetylase 3 (Q96SW2 whole entry): as the sequence (Q96SW2 whole entry) above

[4] = biological target: Protein cereblon/Protein deacetylase HDAC6 (Homo sapiens, UniProt Q96SW2+Q9UBN7); assay: PROTAC activity at CRBN/HDAC6 (unknown origin) by cell based assay
Sequence of Protein cereblon/Protein deacetylase HDAC6 (Q96SW2 whole entry, one chain of several): as the sequence (Q96SW2 whole entry) above

[5] = biological target: T1, Histone deacetylase 1 (Homo sapiens, UniProt Q13547); assay: Inhibition of recombinant human HDAC1 using fluorogenic acetylated peptide substrate incubated for 30 mins by microplate reader analysis
T1 sequence (Q13547 whole entry): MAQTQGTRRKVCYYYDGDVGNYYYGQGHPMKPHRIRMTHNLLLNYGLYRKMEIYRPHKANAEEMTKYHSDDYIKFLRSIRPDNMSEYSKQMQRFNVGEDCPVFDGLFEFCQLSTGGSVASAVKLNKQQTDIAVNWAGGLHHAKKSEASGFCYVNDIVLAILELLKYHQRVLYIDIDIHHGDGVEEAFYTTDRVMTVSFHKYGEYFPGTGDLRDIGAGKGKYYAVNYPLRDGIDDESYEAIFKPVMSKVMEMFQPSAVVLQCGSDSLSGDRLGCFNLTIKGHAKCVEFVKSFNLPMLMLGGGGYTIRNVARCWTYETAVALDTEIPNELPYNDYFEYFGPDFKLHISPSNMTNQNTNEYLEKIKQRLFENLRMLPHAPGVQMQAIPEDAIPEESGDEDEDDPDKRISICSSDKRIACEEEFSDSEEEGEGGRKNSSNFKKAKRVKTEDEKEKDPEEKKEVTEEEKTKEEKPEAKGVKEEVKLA

[6] = species on record: Homo sapiens; assay: Selectivity ratio of IC50 for recombinant human HDAC6 to IC50 for recombinant human HDAC1
[7] = tested on: HeLa; assay: Antiproliferative activity against human HeLa cells assessed as cell growth inhibition incubated for 48 hrs by MTT assay; format: functional, cell-based
[8] = Inhibition of His-tagged recombinant human HDAC1 expressed in baculovirus infected insect cells using SIRT1 deacetylase substrate incubated for 30 mins by Luminescence Glo assay
[9] = biological target: T2, Protein deacetylase HDAC6 (Homo sapiens, UniProt Q9UBN7); assay: Inhibition of HDAC6 (unknown origin) incubated for 30 mins by fluorescence based assay
T2 sequence (Q9UBN7 whole entry): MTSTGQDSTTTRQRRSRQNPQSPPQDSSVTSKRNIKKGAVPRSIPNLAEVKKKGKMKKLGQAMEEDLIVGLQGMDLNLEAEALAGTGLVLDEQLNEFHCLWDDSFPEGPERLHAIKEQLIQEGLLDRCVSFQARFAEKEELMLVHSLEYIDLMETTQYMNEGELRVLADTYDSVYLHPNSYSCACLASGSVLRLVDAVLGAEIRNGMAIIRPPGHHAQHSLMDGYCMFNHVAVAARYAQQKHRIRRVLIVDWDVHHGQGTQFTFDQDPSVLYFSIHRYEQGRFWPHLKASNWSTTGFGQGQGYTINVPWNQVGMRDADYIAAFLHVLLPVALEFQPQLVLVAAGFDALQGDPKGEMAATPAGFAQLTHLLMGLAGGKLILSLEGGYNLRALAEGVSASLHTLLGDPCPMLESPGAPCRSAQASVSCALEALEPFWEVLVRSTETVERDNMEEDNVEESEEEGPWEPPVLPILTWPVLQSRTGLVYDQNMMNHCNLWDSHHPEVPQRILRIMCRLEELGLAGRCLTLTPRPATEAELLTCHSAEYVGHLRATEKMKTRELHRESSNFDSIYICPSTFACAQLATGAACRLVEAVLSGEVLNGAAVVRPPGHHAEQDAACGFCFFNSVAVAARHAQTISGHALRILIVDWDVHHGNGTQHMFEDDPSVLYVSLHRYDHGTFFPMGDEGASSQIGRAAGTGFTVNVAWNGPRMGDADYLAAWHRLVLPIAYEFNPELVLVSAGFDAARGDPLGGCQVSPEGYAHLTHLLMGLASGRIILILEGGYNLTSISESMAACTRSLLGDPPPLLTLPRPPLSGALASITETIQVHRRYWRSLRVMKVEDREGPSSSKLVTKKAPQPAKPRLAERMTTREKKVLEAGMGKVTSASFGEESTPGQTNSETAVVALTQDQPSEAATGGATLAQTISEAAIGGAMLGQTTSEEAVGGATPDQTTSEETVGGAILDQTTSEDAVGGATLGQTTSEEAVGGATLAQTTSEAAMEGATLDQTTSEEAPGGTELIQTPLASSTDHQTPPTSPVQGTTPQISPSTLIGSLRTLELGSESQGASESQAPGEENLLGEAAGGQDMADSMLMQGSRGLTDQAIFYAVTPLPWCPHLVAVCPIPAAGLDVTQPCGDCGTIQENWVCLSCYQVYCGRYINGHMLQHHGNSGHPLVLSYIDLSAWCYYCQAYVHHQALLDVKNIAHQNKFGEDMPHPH

[10] = biological target: T1, Histone deacetylase 1; assay: Inhibition of HDAC1 (unknown origin) incubated for 30 mins by fluorescence based assay
[11] = biological target: T3, von Hippel-Lindau disease tumor suppressor/Histone deacetylase 1 (Homo sapiens, UniProt P40337+Q13547); assay: PROTAC activity at VHL/LSD1/HDAC1/CoREST complex interaction (unknown origin) assessed as induction of HDAC1 degradation using Boc-(Ac)Lys-AMC as substrate incubated for 20 mins by fluorescence based assay
T3 sequence (Q13547 whole entry): as the sequence (Q13547 whole entry) above
T3 sequence (P40337 whole entry): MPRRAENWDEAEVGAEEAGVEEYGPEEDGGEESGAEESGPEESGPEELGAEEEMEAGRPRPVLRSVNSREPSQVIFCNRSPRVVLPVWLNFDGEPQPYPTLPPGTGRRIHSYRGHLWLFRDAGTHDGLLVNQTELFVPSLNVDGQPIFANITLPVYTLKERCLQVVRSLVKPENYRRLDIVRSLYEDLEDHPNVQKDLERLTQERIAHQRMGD

[12] = biological target: von Hippel-Lindau disease tumor suppressor/Histone deacetylase 1 (Homo sapiens) (UniProt Q13547+P40337); assay: PROTAC activity at VHL/HDAC1 in human HCT-116 cells assessed as induction of HDAC1 degradation at 1 uM incubated for 24 hrs by Western blot analysis relative to control; format: cell-based
Sequence of von Hippel-Lindau disease tumor suppressor/Histone deacetylase 1 (Homo sapiens) (P40337 whole entry, looked up): as the sequence (P40337 whole entry) above
Sequence of von Hippel-Lindau disease tumor suppressor/Histone deacetylase 1 (Homo sapiens) (Q13547 whole entry, looked up): as the sequence (Q13547 whole entry) above

[13] = biological target: von Hippel-Lindau disease tumor suppressor/Histone deacetylase 2 (Homo sapiens) (UniProt Q92769+P40337); assay: PROTAC activity at VHL/HDAC2 in human HCT-116 cells assessed as induction of HDAC1 degradation at 1 uM incubated for 24 hrs by Western blot analysis relative to control; format: cell-based
Sequence of von Hippel-Lindau disease tumor suppressor/Histone deacetylase 2 (Homo sapiens) (P40337 whole entry, looked up): as the sequence (P40337 whole entry) above
Sequence of von Hippel-Lindau disease tumor suppressor/Histone deacetylase 2 (Homo sapiens) (Q92769 whole entry, looked up): as the sequence (Q92769 whole entry) above

[14] = biological target: T4, von Hippel-Lindau disease tumor suppressor/Histone deacetylase 3 (Homo sapiens, UniProt O15379+P40337); assay: PROTAC activity at VHL/HDAC3 in human HCT-116 cells assessed as induction of HDAC1 degradation at 1 uM incubated for 24 hrs by Western blot analysis relative to control; format: cell-based
Target sequence in this assay (O15379 whole entry, looked up): as the sequence (O15379 whole entry) above
Target sequence in this assay (P40337 whole entry, looked up): as the sequence (P40337 whole entry) above

[15] = biological target: T2, Protein deacetylase HDAC6; assay: Inhibition of HDAC6 derived from human HeLa cell nuclear extract using Boc-Lys(Ac)-AMC as substrate by fluorescence based assay; format: cell-free
[16] = biological target: T1, Histone deacetylase 1; assay: Inhibition of HDAC1 derived from human HeLa cell nuclear extract using Boc-Lys(Ac)-AMC as substrate by fluorescence based assay; format: cell-free
[17] = biological target: T1, Histone deacetylase 1; assay: Inhibition of HDAC1 (unknown origin) using fluorimetric substrate incubated for 30 mins by fluorogenic assay
[18] = biological target: T4, von Hippel-Lindau disease tumor suppressor/Histone deacetylase 3; assay: PROTAC activity at VHL/HDAC3 in human MDA-MB-468 cells assessed as induction of HDAC3 degradation incubated for 14 hrs by Western blot analysis; format: cell-based
Target sequence in this assay (O15379 whole entry): as the sequence (O15379 whole entry) above
Target sequence in this assay (P40337 whole entry): as the sequence (P40337 whole entry) above

[19] = biological target: T3, von Hippel-Lindau disease tumor suppressor/Histone deacetylase 1; assay: PROTAC activity at VHL/HDAC1 (unknown origin) by cell based assay
[20] = biological target: von Hippel-Lindau disease tumor suppressor/Histone deacetylase 2 (Homo sapiens, UniProt P40337+Q92769); assay: PROTAC activity at VHL/HDAC2 (unknown origin) by cell based assay
Sequence of von Hippel-Lindau disease tumor suppressor/Histone deacetylase 2 (Q92769 whole entry): as the sequence (Q92769 whole entry) above
Sequence of von Hippel-Lindau disease tumor suppressor/Histone deacetylase 2 (P40337 whole entry): as the sequence (P40337 whole entry) above

[21] = biological target: T4, von Hippel-Lindau disease tumor suppressor/Histone deacetylase 3; assay: PROTAC activity at VHL/HDAC3 (unknown origin) by cell based assay
Target sequence in this assay (O15379 whole entry): as the sequence (O15379 whole entry) above
Target sequence in this assay (P40337 whole entry): as the sequence (P40337 whole entry) above

[22] = biological target: T1, Histone deacetylase 1; assay: Inhibition of recombinant human HDAC1 using fluorescent deacetylated substrate incubated for 15 mins by fluorescence based assay
[23] = biological target: Histone deacetylase 2 (Homo sapiens, UniProt Q92769); assay: Inhibition of recombinant human HDAC2 using fluorescent green substrate incubated for 30 mins by fluorescence based assay
Sequence of Histone deacetylase 2 (Q92769 whole entry): as the sequence (Q92769 whole entry) above

[24] = Inhibition of recombinant human HDAC3/NCOR1 using fluorescent deacetylated substrate incubated for 15 mins by fluorescence based assay

Sequence of Protein cereblon/Histone deacetylase 1 (Q13547 whole entry): as the sequence (Q13547 whole entry) above
Sequence of Protein cereblon/Histone deacetylase 1 (Q96SW2 whole entry): as the sequence (Q96SW2 whole entry) above

O=C(CCCCCCNC(=O)c1ccc(NC(=O)COCCOCCNC(=O)COc2cccc3c2C(=O)N(C2CCC(=O)NC2=O)C3=O)cc1)NO (centres undefined)
IC50 [1]: 174 nM | IC50 [2]: 248 nM | IC50 [3]: 27 nM | IC50 [4]: 27 nM

COc1ccc2cc(C(=O)Oc3cccc(/C=C/C(=O)NO)c3)c(=O)oc2c1
IC50 [5]: 190 nM | Ratio IC50 [6]: 26 | IC50 [7]: 230 nM

CCCCNNC(=O)c1ccc(-c2ccccc2)cc1
IC50 [8]: 90 nM

O=C(CCCCCCC(=O)Nc1nc2c(s1)C[C@@H](NC(=O)c1cccc3ccccc13)CC2)NO
IC50 [9]: 4.6 nM | IC50 [10]: 1.4 nM

Cc1ncsc1-c1ccc(CNC(=O)[C@@H]2C[C@@H](O)CN2C(=O)[C@@H](NC(=O)CCCCCCCCCCC(=O)Nc2ccc(C(=O)Nc3ccccc3N)cc2)C(C)(C)C)cc1
IC50 [11]: 16800 nM | Activity [12]: 50% | Activity [13]: 50% | Activity [14]: 50%

CC(C)n1cnc2c(-c3cccc(OCCCC(=O)NO)c3)nc(N3CCOCC3)nc21
IC50 [15]: 24 nM | IC50 [16]: 82 nM

Cc1ccc(C(=O)Nc2nc(C(=O)NO)co2)cc1
IC50 [17]: 10 nM

CCCNNC(=O)c1ccc(-c2ccc(NC(=O)CCCCCCC(=O)N[C@H](C(=O)N3C[C@H](O)C[C@H]3C(=O)N[C@@H](C)c3ccc(-c4scnc4C)cc3)C(C)(C)C)cc2)cc1
EC50 [18]: 42 nM | IC50 [19]: 650 nM | IC50 [20]: 1550 nM | IC50 [21]: 350 nM

Nc1ccccc1NC(=O)c1ccc2ncccc2c1
IC50 [22]: 18700 nM | IC50 [23]: 26000 nM | IC50 [24]: 560 nM
